Reference: the supplement of paper PMC11208160

experiment: recombinant barcode read abundance after kanamycin selection (control-corrected) (log10(CPM+1)); higher = more efficient recombination; sequences stand for … in AGTGCAGAGAAAATCGGCCAGTTTTCTCTGCCTGCAGTCCGCATGCCGT…AGATTTATGCAGCGGACTGCCTTTCTCCCAAAGTGATAAACCGGACAGTATCATGGACCGGTTTTCCCGGTAATCCGTATTTGCAAGGTTGGTTTCACT; site = the 11-nt target
Method in brief: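 In E. coli, a pooled library matched targets to IS621 bridge RNA target-binding loops and was introduced alongside a donor plasmid. Cells went onto chloramphenicol/ampicillin/kanamycin with 0.1 mM IPTG or onto chloramphenicol/ampicillin LB agar as control, in duplicate. Recombination efficiency, from recombinant-junction barcodes as counts per million, is averaged and control-corrected. It is reported as log10(CPM+1).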
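Also: IS621 recombinase and bridge RNA in Escherichia coli cells.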

| Sequence | recombinant barcode read abundance (log10) |
| --- | --- |
| GGCACCGCTTGGGTTCTAACCTGTTGCCT (site GGCACCGCTAG) | 0.905 |
| GGCACCGCTTGGGTTCTAACCTGTTGCCT (site GGCACGGCTAG) | 0.164 |
| GGCACCGCTTGGGTTCTAACCTGTTGCCT (site GGCACTGCTAG) | 0.0527 |
| GGCAGACCTTGGGTTCTAACCTGTTGCCT (site GGCAGACCTAG) | 1 |
| GGCAGACCTTGGGTTCTAACCTGTTGCCT (site GGCAGTCCTCG) | 0.373 |
| GGCATATCTTGGGTTCTAACCTGTTGCCT (site AGTATATCTAG) | 0.0602 |
| GGCATATCTTGGGTTCTAACCTGTTGCCT (site GGCATATCTAG) | 0.048 |
| GGCATCCCTTGGGTTCTAACCTGTTGCCT (site GGCATCCCTAG) | 0.337 |
| GGCATCCCTTGGGTTCTAACCTGTTGCCT (site GGCCTCCCTAG) | 0.258 |
| GGCATCCCTTGGGTTCTAACCTGTTGCCT (site GGCGTCCCTAG) | 0.184 |
| GGCATCCCTTGGGTTCTAACCTGTTGCCT (site GGCTTCCCTAG) | 0.145 |
| GGCCGGACTTGGGTTCTAACCTGTTGCCT (site GGCCGGACTAG) | 0.937 |
| GGCCGGACTTGGGTTCTAACCTGTTGCCT (site GGCCGGCCTAG) | 0.253 |
| GGCCGGACTTGGGTTCTAACCTGTTGCCT (site GGCCGGGCTAG) | 0.112 |
| GGCCGGACTTGGGTTCTAACCTGTTGCCT (site GGCCGGTCTAG) | 0.021 |
| GGCCGGGCTTGGGTTCTAACCTGTTGCCT (site GGCCGGACTAG) | 0.143 |
| GGCCGGGCTTGGGTTCTAACCTGTTGCCT (site GGCCGGCCTAG) | 0.0912 |
| GGCCGGGCTTGGGTTCTAACCTGTTGCCT (site GGCCGGGCTAG) | 0.219 |
| GGCCGGGCTTGGGTTCTAACCTGTTGCCT (site GGCCGGTCTAG) | 0.0839 |
| GGCCGTCCTTGGGTTCTAACCTGTTGCAG (site ACCCGTCCTCT) | 0.184 |
| GGCCGTCCTTGGGTTCTAACCTGTTGCAG (site GGCCGTCCTCT) | 0.118 |
| GGCGCCTCTTGGGTTCTAACCTGTTGCGC (site AATCTAACTAG) | 0.139 |

| Sequence | recombinant barcode read abundance (log10) |
| --- | --- |
| GGCGCCTCTTGGGTTCTAACCTGTTGCGC (site GGCGCCTCTGC) | 0.777 |
| GGCGCGTCTTGGGTTCTAACCTGTTGCCT (site GGCGCATCTAG) | 0.607 |
| GGCGCGTCTTGGGTTCTAACCTGTTGCCT (site GGCGCGTCTAG) | 0.557 |
| GGCGTCACTTGGGTTCTAACCTGTTGCCT (site GGCGACCCTAG) | 0.111 |
| GGCGTCACTTGGGTTCTAACCTGTTGCCT (site GGCGTCACTAG) | 1.24 |
| GGCTAACCTTGGGTTCTAACCTGTTGCCT (site CATCGGACTTT) | 0.0416 |
| GGCTAACCTTGGGTTCTAACCTGTTGCCT (site GGCTAACCTAG) | 1.33 |
| GGCTACCCTTGGGTTCTAACCTGTTGCAA (site CTGGTATCTAA) | 0.148 |
| GGCTACCCTTGGGTTCTAACCTGTTGCAA (site GGCTACCCTTT) | 0.774 |
| GGCTAGACTTGGGTTCTAACCTGTTGCGG (site GGCTAGACTCC) | 1.43 |
| GGCTAGACTTGGGTTCTAACCTGTTGCGG (site GGCTCTACTCC) | 0.0457 |
| GGCTTCTCTTGGGTTCTAACCTGTTGCCT (site GGCTTCTCTAG) | 1.22 |
| GGCTTCTCTTGGGTTCTAACCTGTTGCCT (site TGCCTCTCTAG) | 0.0687 |
| GGGAACCCTTGGGTTCTAACCTGTTGCTA (site GGGAACCCTAA) | 0.147 |
| GGGAACCCTTGGGTTCTAACCTGTTGCTA (site GGGAACCCTCA) | 0.132 |
| GGGAACCCTTGGGTTCTAACCTGTTGCTA (site GGGAACCCTGA) | 0.0297 |
| GGGAACCCTTGGGTTCTAACCTGTTGCTA (site GGGAACCCTTA) | 1.29 |
| GGGACCTCTTGGGTTCTAACCTGTTGCGG (site GGGACCTCTAC) | 1.25 |
| GGGACCTCTTGGGTTCTAACCTGTTGCGG (site GGGACCTCTCC) | 1.94 |
| GGGATGTCTTGGGTTCTAACCTGTTGCCT (site GAGATGTCTAG) | 0.444 |
| GGGATGTCTTGGGTTCTAACCTGTTGCCT (site GCGATGTCTAG) | 0.128 |
| GGGATGTCTTGGGTTCTAACCTGTTGCCT (site GGGATGTCTAG) | 2.04 |

| Sequence | recombinant barcode read abundance (log10) |
| --- | --- |
| GGGATGTCTTGGGTTCTAACCTGTTGCCT (site GTGATGTCTAG) | 0.211 |
| GGGCAGCCTTGGGTTCTAACCTGTTGCCT (site GGGCAACCTAC) | 0.0939 |
| GGGCAGCCTTGGGTTCTAACCTGTTGCCT (site GGGCAGCCTAG) | 0.458 |
| GGGCATCCTTGGGTTCTAACCTGTTGCTT (site GGGCATCCTAA) | 0.652 |
| GGGCATCCTTGGGTTCTAACCTGTTGCTT (site GTGCACCCTAA) | 0.637 |
| GGGCCGGCTTGGGTTCTAACCTGTTGCCG (site AATGATTCTAC) | 0.292 |
| GGGCCGGCTTGGGTTCTAACCTGTTGCCG (site GGGCCGGCTCG) | 1.14 |
| GGGCCTGCTTGGGTTCTAACCTGTTGCCA (site CTCGACCCTAT) | 0 |
| GGGCCTGCTTGGGTTCTAACCTGTTGCCA (site GGGCCTGCTTG) | 1.18 |
| GGGCTGTCTTGGGTTCTAACCTGTTGCTT (site GGGCTGTCTAA) | 0.705 |
| GGGCTGTCTTGGGTTCTAACCTGTTGCTT (site GGGGTGTCTCA) | 0.37 |
| GGGGAGCCTTGGGTTCTAACCTGTTGCTG (site GGGGAGCCTCA) | 2.9 |
| GGGGAGCCTTGGGTTCTAACCTGTTGCTG (site GGGGAGTCTAA) | 0.358 |
| GGGGATCCTTGGGTTCTAACCTGTTGCCT (site GAGGATCCTAG) | 0.679 |
| GGGGATCCTTGGGTTCTAACCTGTTGCCT (site GGGGATCCTAG) | 2.45 |
| GGGGCACCTTGGGTTCTAACCTGTTGCAT (site GGGGCACCTAA) | 1.56 |
| GGGGCACCTTGGGTTCTAACCTGTTGCAT (site GGGGCACCTAC) | 0.357 |
| GGGGCACCTTGGGTTCTAACCTGTTGCAT (site GGGGCACCTAG) | 0.598 |
| GGGGCACCTTGGGTTCTAACCTGTTGCAT (site GGGGCACCTAT) | 2.89 |
| GGGGCCTCTTGGGTTCTAACCTGTTGCTT (site GGGGCATCTAA) | 0.481 |
| GGGGCCTCTTGGGTTCTAACCTGTTGCTT (site GGGGCCTCTAA) | 2.59 |
| GGGGCCTCTTGGGTTCTAACCTGTTGCTT (site GGGGCGTCTAA) | 0.225 |

| Sequence | recombinant barcode read abundance (log10) |
| --- | --- |
| GGGGCCTCTTGGGTTCTAACCTGTTGCTT (site GGGGCTTCTAA) | 0.398 |
| GGGGCGGCTTGGGTTCTAACCTGTTGCCT (site GGGGCGACTAG) | 0.489 |
| GGGGCGGCTTGGGTTCTAACCTGTTGCCT (site GGGGCGCCTAG) | 0.0428 |
| GGGGCGGCTTGGGTTCTAACCTGTTGCCT (site GGGGCGGCTAG) | 1.8 |
| GGGGCGGCTTGGGTTCTAACCTGTTGCCT (site GGGGCGTCTAG) | 0.242 |
| GGGGCGTCTTGGGTTCTAACCTGTTGCCG (site GGGCAGTCTCG) | 0.201 |
| GGGGCGTCTTGGGTTCTAACCTGTTGCCG (site GGGGCGTCTCG) | 1.63 |
| GGGGCGTCTTGGGTTCTAACCTGTTGCCT (site GGGGCGACTAG) | 0.167 |
| GGGGCGTCTTGGGTTCTAACCTGTTGCCT (site GGGGCGCCTAG) | 0.426 |
| GGGGCGTCTTGGGTTCTAACCTGTTGCCT (site GGGGCGGCTAG) | 0.172 |
| GGGGCGTCTTGGGTTCTAACCTGTTGCCT (site GGGGCGTCTAG) | 1.55 |
| GGGGCGTCTTGGGTTCTAACCTGTTGCTG (site GGGGCGTCTCA) | 2.44 |
| GGGGCGTCTTGGGTTCTAACCTGTTGCTG (site TCCATAACTAG) | 0.175 |
| GGGGCTTCTTGGGTTCTAACCTGTTGCCT (site GAGGCTTCTAG) | 0.0126 |
| GGGGCTTCTTGGGTTCTAACCTGTTGCCT (site GCGGCTTCTAG) | 0.207 |
| GGGGCTTCTTGGGTTCTAACCTGTTGCCT (site GGGGCTTCTAG) | 0.919 |
| GGGGCTTCTTGGGTTCTAACCTGTTGCCT (site GTGGCTTCTAG) | 0.245 |
| GGGGTATCTTGGGTTCTAACCTGTTGCCT (site GCGGTATCTAG) | 0.0929 |
| GGGGTATCTTGGGTTCTAACCTGTTGCCT (site GGGGTATCTAG) | 1.21 |
| GGGTAAACTTGGGTTCTAACCTGTTGCCT (site GGGTAAACTAG) | 0.953 |
